Measured values taken from patent publication US20060069132A1, “Azolecarboxamide herbicides” (priority 2004, published 2006).

Legend:
[1] = test system: barnyardgrass; assay: Test A pre-/postemergence herbicide test; type: in vivo, Echinochloa crus-galli
Outline: (§1)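 Plants are held in greenhouse about ten days after treatment, then compared with untreated controls and scored 0 (no effect) to 100 (complete control). Preemergence dosing is a directed soil spray on sown sandy loam; postemergence dosing is spray to runoff at 2–10 cm height.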

[2] = test system: large crabgrass; assay: Test A pre-/postemergence herbicide test; type: in vivo, Digitaria sanguinalis
Outline: as §1

[3] = test system: giant foxtail; assay: Test A pre-/postemergence herbicide test; type: in vivo, Setaria faberi
Outline: as §1

[4] = test system: morningglory; assay: Test A pre-/postemergence herbicide test; type: in vivo, Ipomoea spp.
Outline: as §1

[5] = test system: redroot pigweed; assay: Test A pre-/postemergence herbicide test; type: in vivo, Amaranthus retroflexus
Outline: as §1

[6] = test system: velvetleaf; assay: Test A pre-/postemergence herbicide test; type: in vivo, Abutilon theophrasti
Outline: as §1

[7] = test system: barnyardgrass; assay: Test B pre-/postemergence herbicide test; type: in vivo, Echinochloa crus-galli; details: for Plant response rating, Barnyardgrass: preemergence; for Barnyardgrass plant response rating: postemergence, visual rating, scale 0 (no effect) to 100 (complete control)
Outline: (§2)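 Species tested were Echinochloa crus-galli, Ipomoea coccinea, Xanthium strumarium and Oryza sativa, treated both before emergence and at the 1- to 4-leaf stage; rice and barnyardgrass were also tested under flooding at 2 leaves. Greenhouse incubation lasted 13–15 days before visual 0–100 scoring.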

[8] = test system: Surinam grass; assay: Test B pre-/postemergence herbicide test; type: in vivo, Urochloa decumbens; details: for Plant response rating, Surinam Grass: preemergence; for Surinam Grass plant response rating: postemergence, visual rating, scale 0 (no effect) to 100 (complete control)
Outline: (§3)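 Test chemicals in a non-phytotoxic solvent mixture with surfactant were applied preemergence to seeded species and postemergence to plants 2-18 cm tall (1- to 4-leaf stage); rice and barnyardgrass were also tested in a flooded paddy at the 2-leaf stage. Visual rating versus controls after 13-15 days in greenhouse, scale 0 (no effect) to 100 (complete control).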

[9] = test system: cocklebur; assay: Test B pre-/postemergence herbicide test; type: in vivo, Xanthium strumarium; details: for Plant response rating, Cocklebur: preemergence; for Cocklebur plant response rating: postemergence, visual rating, scale 0 (no effect) to 100 (complete control)
Outline: as §2

[10] = test system: corn; assay: Test B pre-/postemergence herbicide test; type: in vivo, Zea mays; details: for Plant response rating, Corn: preemergence; for Corn plant response rating: postemergence, visual rating, scale 0 (no effect) to 100 (complete control)
Outline: as §3

[11] = test system: large crabgrass; assay: Test B pre-/postemergence herbicide test; type: in vivo, Digitaria sanguinalis; details: for Plant response rating, Crabgrass, Large: preemergence; for Crabgrass, Large plant response rating: postemergence, visual rating, scale 0 (no effect) to 100 (complete control)
Outline: as §3

[12] = test system: giant foxtail; assay: Test B pre-/postemergence herbicide test; type: in vivo, Setaria faberi; details: for Plant response rating, Foxtail, Giant: preemergence; for Foxtail, Giant plant response rating: postemergence, visual rating, scale 0 (no effect) to 100 (complete control)
Outline: as §3

[13] = test system: lambsquarters; assay: Test B pre-/postemergence herbicide test; type: in vivo, Chenopodium album; details: for Plant response rating, Lambsquarters: preemergence; for Lambsquarters plant response rating: postemergence, visual rating, scale 0 (no effect) to 100 (complete control)
Outline: as §3

[14] = test system: morningglory; assay: Test B pre-/postemergence herbicide test; type: in vivo, Ipomoea coccinea; details: for Plant response rating, Morningglory: preemergence; for Morningglory plant response rating: postemergence, visual rating, scale 0 (no effect) to 100 (complete control)
Outline: as §2

[15] = test system: pigweed; assay: Test B pre-/postemergence herbicide test; type: in vivo, Amaranthus retroflexus; details: for Plant response rating, Pigweed: preemergence; for Pigweed plant response rating: postemergence, visual rating, scale 0 (no effect) to 100 (complete control)
Outline: as §3

[16] = test system: velvetleaf; assay: Test B pre-/postemergence herbicide test; type: in vivo, Abutilon theophrasti; details: for Plant response rating, Velvetleaf: preemergence; for Velvetleaf plant response rating: postemergence, visual rating, scale 0 (no effect) to 100 (complete control)
Outline: as §3

[17] = test system: blackgrass; assay: Test B postemergence herbicide test; type: in vivo, Alopecurus myosuroides; details: postemergence, visual rating, scale 0 (no effect) to 100 (complete control)
Outline: (§4)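 Plants grow to 1- to 4-leaf stage (2–18 cm) for postemergence spraying, or to 2-leaf stage for the paddy test. Formulated compound is applied. Greenhouse holding lasts 13–15 days. Response is scored visually relative to controls, 0 no effect to 100 complete control; a dash means no result.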

[18] = test system: wheat; assay: Test B postemergence herbicide test; type: in vivo, Triticum aestivum; set-up: key to Wheat plant response rating: 0 = no effect, 100 = complete control; details: postemergence, 500 g ai/ha; visual rating, scale 0 (no effect) to 100 (complete control)
Outline: (§5)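 Visual ratings, 0 (no effect) to 100 (complete control), made versus controls after 13–15 d greenhouse. Paddy plants treated at 2-leaf stage; postemergence plants at 1- to 4-leaf stage, 2–18 cm tall.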

[19] = test system: wild oat; assay: Test B postemergence herbicide test; type: in vivo, Avena fatua; details: postemergence, visual rating, scale 0 (no effect) to 100 (complete control)
Outline: as §5

[20] = test system: rice; assay: Test B flooded paddy test; type: in vivo, Oryza sativa; details: 1000 g ai/ha, visual rating, scale 0 to 100 (0 no effect, 100 complete control), 13 to 15 days
Outline: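 Paddy species grown to the 2-leaf stage under flooding; blackgrass sprayed postemergence at 2–18 cm (1- to 4-leaf stage). Plants kept in a greenhouse for 13 to 15 days, then visually rated against controls on 0 (no effect) to 100 (complete control).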

[21] = test system: small flower umbrella sedge; assay: Test B flooded paddy test; type: in vivo, Cyperus difformis; details: 1000 g ai/ha, visual rating, scale 0 to 100 (0 no effect, 100 complete control), 13 to 15 days
Outline: as §4

[22] = test system: ducksalad; assay: Test B flooded paddy test; type: in vivo, Heteranthera limosa; details: 1000 g ai/ha, visual rating, scale 0 to 100 (0 no effect, 100 complete control), 13 to 15 days
Outline: as §4

[23] = test system: barnyardgrass; assay: Test B flooded paddy test; type: in vivo, Echinochloa crus-galli; details: 1000 g ai/ha, visual rating, scale 0 to 100 (0 no effect, 100 complete control), 13 to 15 days
Outline: as §4

[24] = Postemergence, 500 g ai/ha, 0 to 100 scale, 0 no effect, 100 complete control
[25] = Postemergence, 2000 g ai/ha, 0 to 100 scale, 0 no effect, 100 complete control
[26] = Preemergence, 500 g ai/ha, visual rating, 0 to 100 scale (0 no effect, 100 complete control)
[27] = Preemergence, 2000 g ai/ha, visual rating, 0 to 100 scale (0 no effect, 100 complete control)
[28] = preemergence, 500 g ai/ha, visual injury, 0 to 100 scale (0 no effect, 100 complete control)
[29] = 500 g ai/ha, visual rating 0-100, 0 no effect, 100 complete control
[30] = 125 g ai/ha, 0 to 100 scale, 0 is no effect, 100 is complete control

CC(=NO)c1ccnc(NC(=O)c2cc(C(C)(C)C)nn2C)n1 [Compound 164]
Barnyardgrass plant response rating [1, 24]: 10
Plant response rating, Barnyardgrass [1, 25]: 10
Barnyardgrass plant response rating [1, 26]: 0
Barnyardgrass plant response rating [1, 27]: 0
Crabgrass, Large plant response rating [2, 24]: 10
Plant response rating, Crabgrass, Large [2, 25]: 10
Crabgrass, Large plant response rating [2, 26]: 0
Crabgrass, Large plant response rating [2, 27]: 0
Foxtail, Giant plant response rating [3, 24]: 0
Plant response rating, Foxtail, Giant [3, 25]: 0
Foxtail, Giant plant response rating [3, 26]: 0
Foxtail, Giant plant response rating [3, 27]: 0
Morningglory plant response rating [4, 24]: 10
Plant response rating, Morningglory [4, 25]: 5
Morningglory plant response rating [4, 26]: 0
Morningglory plant response rating [4, 27]: 0
Pigweed plant response rating [5, 24]: 0
Plant response rating, Pigweed [5, 25]: 0
Pigweed plant response rating [5, 27]: 0
Pigweed plant response rating [5, 28]: 0
Velvetleaf plant response rating [6, 24]: 5
Plant response rating, Velvetleaf [6, 25]: 0
Velvetleaf plant response rating [6, 27]: 0
Velvetleaf plant response rating [6, 28]: 0
Plant response rating, Barnyardgrass [7, 29]: 0
Barnyardgrass plant response rating ([7]; 125 g ai/ha): 0
Barnyardgrass plant response rating ([7]; 500 g ai/ha): 0
Plant response rating, Barnyardgrass [7, 30]: 0
Plant response rating, Surinam Grass [8, 29]: 0
Surinam Grass plant response rating ([8]; 125 g ai/ha): 0
Surinam Grass plant response rating ([8]; 500 g ai/ha): 10
Plant response rating, Surinam Grass [8, 30]: 0
Plant response rating, Cocklebur [9, 29]: 0
Cocklebur plant response rating ([9]; 125 g ai/ha): 0
Cocklebur plant response rating ([9]; 500 g ai/ha): 0
Plant response rating, Cocklebur [9, 30]: 0
Plant response rating, Corn [10, 29]: 0
Corn plant response rating ([10]; 125 g ai/ha): 0
Corn plant response rating ([10]; 500 g ai/ha): 10
Plant response rating, Corn [10, 30]: 0
Plant response rating, Crabgrass, Large [11, 29]: 0
Crabgrass, Large plant response rating ([11]; 125 g ai/ha): 0
Crabgrass, Large plant response rating ([11]; 500 g ai/ha): 0
Plant response rating, Crabgrass, Large [11, 30]: 0
Plant response rating, Foxtail, Giant [12, 29]: 0
Foxtail, Giant plant response rating ([12]; 125 g ai/ha): 0
Foxtail, Giant plant response rating ([12]; 500 g ai/ha): 0
Plant response rating, Foxtail, Giant [12, 30]: 0
Plant response rating, Lambsquarters [13, 29]: 0
Lambsquarters plant response rating ([13]; 125 g ai/ha): 0
Lambsquarters plant response rating ([13]; 500 g ai/ha): 10
Plant response rating, Lambsquarters [13, 30]: 0
Plant response rating, Morningglory [14, 29]: 0
Morningglory plant response rating ([14]; 125 g ai/ha): 0
Morningglory plant response rating ([14]; 500 g ai/ha): 0
Plant response rating, Morningglory [14, 30]: 0
Plant response rating, Pigweed [15, 29]: 0
Pigweed plant response rating ([15]; 125 g ai/ha): 0
Pigweed plant response rating ([15]; 500 g ai/ha): 0
Plant response rating, Pigweed [15, 30]: 0
Plant response rating, Velvetleaf [16, 29]: 0
Velvetleaf plant response rating ([16]; 125 g ai/ha): 0
Velvetleaf plant response rating ([16]; 500 g ai/ha): 0
Plant response rating, Velvetleaf [16, 30]: 0
Blackgrass plant response rating ([17]; 125 g ai/ha): 0
Blackgrass plant response rating ([17]; 500 g ai/ha): 0
Wheat plant response rating [18]: 0
Oat, Wild plant response rating ([19]; 125 g ai/ha): 0
Oat, Wild plant response rating ([19]; 500 g ai/ha): 0
Rice plant response rating [20]: 0
Sedge, Umbrella plant response rating [21]: 0
Ducksalad plant response rating [22]: 0
Barnyardgrass plant response rating [23]: 0
